Target: T1, p53 Y220C (Homo sapiens, UniProt P04637, Y220C)
T1 construct: The recombinant protein was a truncation mutant containing only amino acids 94-312 of p53; made in house; host or cells: E. coli
Experiment: In vitro DNA binding activity assay (HTRF / TR-FRET): stabilization of p53 Y220C and increase of its DNA binding activity
Type: biochemical
Conditions: recombinant His-tagged p53 Y220C DNA binding domain (aa 94-312), biotin-labeled consensus DNA, incubated at 27° C. or 29° C. for 60 min
Method in brief: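 His-tagged p53 Y220C, E. coli-expressed, binding biotin-labeled consensus DNA measured by HTRF (anti-His-APC, streptavidin-europium). Compounds from 4.5 mM DMSO stocks, 3-fold serial dilutions; incubations at room temperature 15 min, then 20 min. SC150 = concentration raising DNA binding by 50%.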

T1 sequence (P04637 94-312, change not shown): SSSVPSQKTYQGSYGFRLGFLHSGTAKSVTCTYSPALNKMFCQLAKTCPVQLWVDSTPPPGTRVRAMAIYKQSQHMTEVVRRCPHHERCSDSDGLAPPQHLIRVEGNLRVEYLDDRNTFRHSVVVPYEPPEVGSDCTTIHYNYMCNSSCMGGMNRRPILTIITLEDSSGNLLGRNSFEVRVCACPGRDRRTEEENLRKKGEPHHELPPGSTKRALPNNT

| SC150 (concentration of the compound required to increase the DNA binding activity by 50%) | SMILES |
| --- | --- |
| + (+ = 0 μM ≤ SC150 < 0.05 μM) | COc1cc(S(C)(=O)=O)ccc1NCC#Cc1cc2c(N[C@H]3CCN(C)C[C@@H]3F)cccc2n1CC(F)(F)F (stereo in doubt) [Compound 774A, N-((3S,4S)-3-fluoro-1-methylpiperidin-4-yl)-2-(3-((2-methoxy-4-(methylsulfonyl)phenyl)amino)prop-1-yn-1-yl)-1-(2,2,2-trifluoroethyl)-1H-indol-4-amine] |
| + (+ = 0 μM ≤ SC150 < 0.05 μM) | COC(=O)c1ccc(NCC#Cc2cc3c(N[C@H]4CCN(C)C[C@H]4F)cccc3n2CC(F)(F)F)c(OC)c1 (stereo in doubt) [Compound 794A, methyl 4-{[3-(4-{[(3R,4S)-3-fluoro-1-methylpiperidin-4-yl]amino}-1-(2,2,2-trifluoroethyl)-1H-indol-2-yl)prop-2-yn-1-yl]amino}-3-methoxybenzoate] |
| ++++ (++++ = 0.2 μM ≤ SC150 < 1 μM) | COc1cc(S(N)(=O)=O)ccc1NCC#Cc1cc2c(NCC(N)=O)cccc2n1CC(F)(F)F [Compound 3A, 2-[(2-{3-[(2-methoxy-4-sulfamoylphenyl)amino]prop-1-yn-1-yl}-1-(2,2,2-trifluoroethyl)-1H-indol-4-yl)amino]acetamide] |
| ++++ (++++ = 0.2 μM ≤ SC150 < 1 μM) | COc1cc(S(C)(=O)=O)ccc1NCC#Cc1cc2c(NC(C)=O)cccc2n1CC(F)(F)F [Compound 5A, N-(2-{3-[(4-methanesulfonyl-2-methoxyphenyl)amino]prop-1-yn-1-yl}-1-(2,2,2-trifluoroethyl)-1H-indol-4-yl)acetamide] |
| ++++ (++++ = 0.2 μM ≤ SC150 < 1 μM) | COc1cc(S(C)(=O)=O)ccc1NCC#Cc1cc2c(NC(=O)NC3CCN(C)CC3)cccc2n1CC(F)(F)F [Compound 6A, 3-(2-{3-[(4-methanesulfonyl-2-methoxyphenyl)amino]prop-1-yn-1-yl}-1-(2,2,2-trifluoroethyl)-1H-indol-4-yl)-1-(1-methylpiperidin-4-yl)urea] |
| ++++ (++++ = 0.2 μM ≤ SC150 < 1 μM) | COc1cc(C(N)=O)ccc1NCC#Cc1cc2c(NC(=O)NC3CCN(C)CC3)cccc2n1CC(F)(F)F [Compound 7A, 3-methoxy-4-{[3-(4-{[(1-methylpiperidin-4-yl)carbamoyl]amino}-1-(2,2,2-trifluoroethyl)-1H-indol-2-yl)prop-2-yn-1-yl]amino}benzamide] |
| ++++ (++++ = 0.2 μM ≤ SC150 < 1 μM) | COc1cc(S(C)(=O)=O)ccc1NCC#Cc1cc2c(NC(=O)N3CCN(C)CC3)cccc2n1CC(F)(F)F [Compound 8A, N-(2-{3-[(4-methanesulfonyl-2-methoxyphenyl)amino]prop-1-yn-1-yl}-1-(2,2,2-trifluoroethyl)-1H-indol-4-yl)-4-methylpiperazine-1-carboxamide] |
| ++++ (++++ = 0.2 μM ≤ SC150 < 1 μM) | COc1cc(C(N)=O)ccc1NCC#Cc1cc2c(NC(=O)N3CCN(C)CC3)cccc2n1CC(F)(F)F [Compound 9A, N-(2-{3-[(4-carbamoyl-2-methoxyphenyl)amino]prop-1-yn-1-yl}-1-(2,2,2-trifluoroethyl)-1H-indol-4-yl)-4-methylpiperazine-1-carboxamide] |
| ++++ (++++ = 0.2 μM ≤ SC150 < 1 μM) | COCCN1CCC(NC(=O)Nc2cccc3c2cc(C#CCNc2ccc(S(C)(=O)=O)cc2OC)n3CC(F)(F)F)CC1 [Compound 13A, 3-(2-{3-[(4-methanesulfonyl-2-methoxyphenyl)amino]prop-1-yn-1-yl}-1-(2,2,2-trifluoroethyl)-1H-indol-4-yl)-1-[1-(2-methoxyethyl)piperidin-4-yl]urea] |
| ++++ (++++ = 0.2 μM ≤ SC150 < 1 μM) | COc1cc(S(C)(=O)=O)ccc1NCC#Cc1cc2c(NC(=O)NC3CCN(CC(N)=O)CC3)cccc2n1CC(F)(F)F [Compound 16A, 2-(4-{[(2-{3-[(4-methanesulfonyl-2-methoxyphenyl)amino]prop-1-yn-1-yl}-1-(2,2,2-trifluoroethyl)-1H-indol-4-yl)carbamoyl]amino}piperidin-1-yl)acetamide] |
| ++++ (++++ = 0.2 μM ≤ SC150 < 1 μM) | COc1cc(S(C)(=O)=O)ccc1NCC#Cc1cc2c(NC(=O)NC3CCN(CCO)CC3)cccc2n1CC(F)(F)F [Compound 17A, 1-[1-(2-hydroxyethyl)piperidin-4-yl]-3-(2-{3-[(4-methanesulfonyl-2-methoxyphenyl)amino]prop-1-yn-1-yl}-1-(2,2,2-trifluoroethyl)-1H-indol-4-yl)urea] |
| + (+ = 0 μM ≤ SC150 < 0.05 μM) | COc1cc(S(C)(=O)=O)ccc1NCC#Cc1cc2c(NC3CC4(COC4)C3)cccc2n1CC(F)(F)F [Compound 20A, 2-{3-[(4-methane-sulfonyl-2-methoxy-phenyl)amino]prop-1-yn-1-yl}-N-{2-oxaspiro[3.3]heptan-6-yl}-1-(2,2,2-trifluoroethyl)-1H-indol-4-amine] |
| + (+ = 0 μM ≤ SC150 < 0.05 μM) | COc1cc(S(N)(=O)=O)ccc1NCC#Cc1cc2c(NC3CC4(CNC4)C3)cccc2n1CC(F)(F)F [Compound 21A, 4-({3-[4-({2-azaspiro[3.3]heptan-6-yl}amino)-1-(2,2,2-trifluoroethyl)-1H-indol-2-yl]prop-2-yn-1-yl}amino)-3-methoxybenzene-1-sulfonamide] |

More lines, now with the values behind:

| SMILES | SC150 (concentration of the compound required to increase the DNA binding activity by 50%) |
| --- | --- |
| COc1cc(S(C)(=O)=O)ccc1NCC#Cc1cc2c(N(C)C)cccc2n1CC(F)(F)F [Compound 1A, 2-{3-[(4-methanesulfonyl-2-methoxyphenyl)amino]prop-1-yn-1-yl}-N,N-dimethyl-1-(2,2,2-trifluoroethyl)-1H-indol-4-amine] | +++ (+++ = 0.1 μM ≤ SC150 < 0.2 μM) |
| COCCNc1cccc2c1cc(C#CCNc1ccc(S(N)(=O)=O)cc1OC)n2CC(F)(F)F [Compound 2A, 3-methoxy-4-[(3-{4-[(2-methoxyethyl)amino]-1-(2,2,2-trifluoroethyl)-1H-indol-2-yl}prop-2-yn-1-yl)amino]benzene-1-sulfonamide] | ++ (++ = 0.05 μM ≤ SC150 < 0.1 μM) |
| COc1cc(S(N)(=O)=O)ccc1NCC#Cc1cc2c(NC(CCO)CCO)cccc2n1CC(F)(F)F [Compound 4A, 4-[(3-{4-[(1,5-dihydroxypentan-3-yl)amino]-1-(2,2,2-trifluoroethyl)-1H-indol-2-yl}prop-2-yn-1-yl)amino]-3-methoxybenzene-1-sulfonamide] | + (+ = 0 μM ≤ SC150 < 0.05 μM) |
| COc1cc(S(C)(=O)=O)ccc1NCC#Cc1cc2c(NC(=O)N[C@H]3CC[C@@H](N(C)C)CC3)cccc2n1CC(F)(F)F [Compound 10A, 3-(2-{3-[(4-methanesulfonyl-2-methoxyphenyl)amino]prop-1-yn-1-yl}-1-(2,2,2-trifluoroethyl)-1H-indol-4-yl)-1-[(1S,4S)-4-(dimethylamino)cyclohexyl]urea] | ++++ (++++ = 0.2 μM ≤ SC150 < 1 μM) |
| COc1cc(S(C)(=O)=O)ccc1NCC#Cc1cc2c(NC(=O)Nc3ccncc3)cccc2n1CC(F)(F)F [Compound 11A, 1-(2-(3-((2-methoxy-4-(methylsulfonyl)phenyl)amino)prop-1-yn-1-yl)-1-(2,2,2-trifluoroethyl)-1H-indol-4-yl)-3-(pyridin-4-yl)urea] | ++++ (++++ = 0.2 μM ≤ SC150 < 1 μM) |
| COc1cc(S(C)(=O)=O)ccc1NCC#Cc1cc2c(NC(=O)N[C@H]3CC[C@H](N(C)C)CC3)cccc2n1CC(F)(F)F [Compound 12A, 3-(2-{3-[(4-methanesulfonyl-2-methoxyphenyl)amino]prop-1-yn-1-yl}-1-(2,2,2-trifluoroethyl)-1H-indol-4-yl)-1-[(1R,4R)-4-(dimethylamino)cyclohexyl]urea] | + (+ = 0 μM ≤ SC150 < 0.05 μM) |
| COc1cc(S(C)(=O)=O)ccc1NCC#Cc1cc2c(NC(=O)NC3CCN(C4CCOCC4)CC3)cccc2n1CC(F)(F)F [Compound 14A, 3-(2-{3-[(4-methanesulfonyl-2-methoxyphenyl)amino]prop-1-yn-1-yl}-1-(2,2,2-trifluoroethyl)-1H-indol-4-yl)-1-[1-(oxan-4-yl)piperidin-4-yl]urea] | ++++ (++++ = 0.2 μM ≤ SC150 < 1 μM) |
| COc1cc(S(C)(=O)=O)ccc1NCC#Cc1cc2c(NC(=O)NC3CCN(CC(O)CO)CC3)cccc2n1CC(F)(F)F (centres unmarked) [Compound 15A, 1-[1-(2,3-dihydroxypropyl)piperidin-4-yl]-3-(2-{3-[(4-methanesulfonyl-2-methoxyphenyl)amino]prop-1-yn-1-yl}-1-(2,2,2-trifluoroethyl)-1H-indol-4-yl)urea] | ++++ (++++ = 0.2 μM ≤ SC150 < 1 μM) |
| COc1cc(S(N)(=O)=O)ccc1NCC#Cc1cc2c(NC3CC4(COC4)C3)cccc2n1CC(F)(F)F [Compound 18A] | + (+ = 0 μM ≤ SC150 < 0.05 μM) |
| COc1cc(S(C)(=O)=O)ccc1NCC#Cc1cc2c(NC3CC(CO)(CCl)C3)cccc2n1CC(F)(F)F (centres unmarked) [Compound 19A, [1-(chloromethyl)-3-[(2-{3-[(4-methanesulfonyl-2-methoxyphenyl)amino]prop-1-yn-1-yl}-1-(2,2,2-trifluoroethyl)-1H-indol-4-yl)amino]cyclobutyl]methanol] | + (+ = 0 μM ≤ SC150 < 0.05 μM) |
